According to US20190091165A1, “METHOD FOR PREPARING NANOPARTICLE OF ACTIVE INGREDIENT USING LIPID AS LUBRICANT IN MILLING PROCESS” (BIO-SYNECTICS INC., priority 2017, published 2019):

Experiment: Separate experiment: dissolving and recrystallizing in a solvent (crystal form / salt stability)
Assay type: physicochemical

For `CNC(=O)c1cc(Oc2ccc(NC(=O)Nc3ccc(Cl)c(C(F)(F)F)c3)cc2)ccn1.Cc1ccc(S(=O)(=O)O)cc1` [Sorafenib tosylate III], the “crystal form and salt stability on recrystallization” value was “crystal form change and partial generation of free base compound by loss of tosylate salt”.
